# Reference: PubChem BioAssay (NCI)
# Values joined by “and” are separate entries in the source; they are usually repeats but may differ in a detail not shown here. Equal entries are not always repeated.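 Step 1: Grow cells in 96-well plates. Step 2: Expose to compound for 48 hours at 5 concentrations. Step 3: Interpolate endpoints linearly; if unreached, use highest concentration. The concentration for 50% growth inhibition is given as GI50. The concentration for full growth arrest is given as TGI.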
# Key:
# Experiment in all cases: NCI tumour cell line growth inhibition, 48 h
# NCI-H23 lung = system: NCI-H23 lung
# SW-620 colon = system: SW-620 colon
# COLO 205 colon = system: COLO 205 colon
# LOX IMVI melanoma = system: LOX IMVI melanoma
# A498 renal = system: A498 renal
# SF-295 CNS = system: SF-295 CNS
# ACHN renal = system: ACHN renal
# MALME-3M melanoma = system: MALME-3M melanoma
# PC-3 prostate = system: PC-3 prostate
# MDA-MB-435 = system: MDA-MB-435
Structure (SMILES),TGI (NCI-H23 lung) [µM],TGI (SW-620 colon) [µM],TGI (COLO 205 colon),TGI (LOX IMVI melanoma) [µM],TGI (A498 renal) [µM],TGI (SF-295 CNS) [µM],TGI (ACHN renal) [µM],TGI (MALME-3M melanoma) [µM],GI50 (NCI-H23 lung) [µM],GI50 (SW-620 colon) [µM],GI50 (COLO 205 colon) [µM],GI50 (LOX IMVI melanoma) [µM],GI50 (A498 renal) [µM],GI50 (SF-295 CNS) [µM],GI50 (ACHN renal) [µM],GI50 (MALME-3M melanoma) [µM],GI50 (PC-3 prostate) [µM],TGI (PC-3 prostate) [µM],GI50 (MDA-MB-435) [µM],TGI (MDA-MB-435) [µM]
CN1CCCC2(CCCc3ccccc32)C1 (stereo not given),> 100,> 100,> 100 µM,> 100,> 100,> 100,> 100,> 100,–,–,–,–,–,–,–,–,–,–,–,–
CN(C)CC(C)(C)C(=O)/C=C/c1ccc(/C=C/C(=O)C(C)(C)CN(C)C)cc1,3.93,2.17,2.24 µM,1.69,3.46,3.84,2.84,3.97,–,–,–,–,–,–,–,–,–,–,–,–
COc1ccc2c(CN3CCCCC3CO)cc3cc(OC)c(OC)cc3c2c1 (stereo not given),16.9,15.7,10.3 µM,13.7,12.7,13.6,31.1,16.9,–,–,–,–,–,–,–,–,–,–,–,–
[Cl-].[O-]/N=C(\c1ccccc1)c1ccccn1.[O-]/N=C(\c1ccccc1)c1ccccn1.[O-]/N=C(\c1ccccc1)c1ccccn1.[Sm+3],87.1,> 100,> 100 µM,53.3,> 100,79.9,> 100,88.6,32.8,34.5,31.3,22.4,58.3,18.7,29.3,24.6,–,–,–,–
COc1ccc(OC)c2c1CC(C(=O)O)(C(=O)O)CC2=O,> 100,> 100,–,> 100,–,–,> 100,> 100,–,–,–,–,–,–,–,–,–,–,–,–
O=c1nc(/C=C/c2ccccc2Cl)cc2n1CCN2CCO,–,> 100,> 100 µM,> 100,–,> 100,> 100,> 100,–,–,–,–,–,–,–,–,–,–,–,–
Cc1[nH]c2ccccc2c1C(=O)CC1(O)C(=O)Nc2ccccc21 (stereo not given),> 100,> 100,> 100 µM,> 100,> 100,> 100,> 100,–,–,–,–,–,–,–,–,–,–,–,–,–
COc1ccc2c(c1)N1CCc3cc(OC)c(OC)cc3C1C2 (stereo not given),> 100,> 100,> 100 µM,> 100,> 100,> 100,> 100,> 100,–,–,–,–,–,–,–,–,–,–,–,–
CC(=O)[CH-]C(C)=O.CC(=O)[CH-]C(C)=O.[CH2-]CCC.[CH2-]CCC.[Sn+4],1.39,0.375,1.05 µM,0.464,0.73,2.8,1.66,1.07,0.315,0.148,0.304,0.174,0.259,1.45,0.487,0.2,–,–,–,–
CN(C)CC(C)(C)/C(=N\Nc1ccccc1)c1ccccc1,> 100,> 100,> 100 µM,37.6,> 100,46.4,48.5,> 100,–,–,–,–,–,–,–,–,–,–,–,–
CCOC(=O)C1N(S(=O)(=O)c2ccc(C)cc2)CCC12c1ccccc1N(C(C)=O)C2c1ccc(OC)c(OC)c1 (stereo not given),> 100,> 100,> 100 µM,> 100,> 100,> 100,> 100,> 100,–,–,–,–,–,–,–,–,–,–,–,–
CCc1cccc(C)c1NC(=O)c1sc2nc3c(cc2c1N)CCCCC3,> 100,> 100,15.2 µM,91.5,23.3,> 100,> 100,84.4,4.67,3.76,2.98,5.3,2.2,3.05,7.45,9.11,3.19,> 100,–,–
c1cc(N(CCn2cccn2)CCn2cccn2)cc(N(CCn2cccn2)CCn2cccn2)c1,–,> 100,> 100 µM,> 100,> 100,> 100,> 100,–,–,–,–,–,–,–,–,–,–,–,–,–
Nc1ccc(C2=NN(c3ccccc3)C(c3ccc(Cl)cc3)C2)cc1 (stereo not given),5.09,3.35,4.54 µM,3.05,13,24.9,3.57,43.8,2.12,1.67,2.15,1.66,1.9,9,1.8,16.2,–,–,2.51,6.58
O=C1c2ccccc2C(Br)(Br)c2ccccc21,> 100,> 31.6,> 31.6 µM,> 31.6,–,> 31.6,> 31.6,> 31.6,–,–,–,–,–,–,–,–,–,–,–,–
Cc1ccc(S(=O)(=O)N/N=C(\c2nc3ccc(Cl)cc3[nH]c2=O)C(O)c2cccc([N+](=O)[O-])c2)cc1 (stereo not given),> 100,> 100,> 100 µM,> 100,> 100,> 100,> 100,> 100,–,–,–,–,–,–,–,–,–,–,–,–

Structure (SMILES),TGI (NCI-H23 lung) [µM],TGI (SW-620 colon) [µM],TGI (COLO 205 colon),TGI (LOX IMVI melanoma) [µM],TGI (A498 renal) [µM],TGI (SF-295 CNS) [µM],TGI (ACHN renal) [µM],TGI (MALME-3M melanoma) [µM],GI50 (NCI-H23 lung) [µM],GI50 (SW-620 colon) [µM],GI50 (COLO 205 colon) [µM],GI50 (LOX IMVI melanoma) [µM],GI50 (A498 renal) [µM],GI50 (SF-295 CNS) [µM],GI50 (ACHN renal) [µM],GI50 (MALME-3M melanoma) [µM],GI50 (PC-3 prostate) [µM],TGI (PC-3 prostate) [µM],GI50 (MDA-MB-435) [µM],TGI (MDA-MB-435) [µM]
COc1ccc(OC)c(/C(C)=N/NC(N)=S)c1,> 100,> 100,> 100 µM,> 100,> 100,> 100,> 100,> 100,–,–,–,–,–,–,–,–,–,–,–,–
C[N-]c1nnnn1C.[Au+].c1ccc([PH+](c2ccccc2)c2ccccc2)cc1,4.48,–,8.81 µM,5.77,–,12.2,8.38,2.91,1.97,–,3.33,2.12,–,3.47,4.26,1.42,–,–,–,–
CCOC(=O)N1CCN(c2nc(Nc3cc(C)[nH]n3)c3ccccc3n2)CC1,–,45.2,5.41 µM,10.1,2.78,> 100,> 100,62.2,–,2.1,1.83,1.86,0.423,5.98,0.707,21.9,–,–,0.829,62.3
CCOc1ccc2nc(SCc3nc4n(n3)S(=O)(=O)c3ccccc3N4C)sc2c1,> 100,> 100,> 100 µM,> 100,> 100,> 100,> 100,–,57.7,> 100,> 100,> 100,> 100,> 100,> 100,–,–,–,> 100,> 100
O=C(O)CCCCCCC[C@H]1S[C@H]1CCCCCCO,> 100,–,> 100 µM,–,–,> 100,–,> 100,–,–,–,–,–,–,–,–,–,–,–,–
COC(=O)N(C(=O)OC)C(C(=O)O)C(C)C (stereo not given),> 100,> 100,> 100 µM,> 100,–,> 100,> 100,–,–,–,–,–,–,–,–,–,–,–,–,–
COc1ccc(Nc2nc3ccc(C(F)(F)F)cc3nc2-c2ccccc2)cc1OC,> 100,> 100,91.2 µM,31.6,> 100,44.9,> 100,> 100,–,–,–,–,–,–,–,–,–,–,–,–
C=C(COC(C)=O)CC(OC(C)=O)c1ccccc1 (stereo not given),> 100,> 100,> 100 µM,> 100,> 100,> 100,> 100,–,–,–,–,–,–,–,–,–,–,–,–,–
Cc1ccc(SC(CCC(Sc2ccc(C)cc2)Sc2ccc(C)cc2)Sc2ccc(C)cc2)cc1,> 100,> 100,> 100 µM,> 100,> 100,> 100,> 100,–,–,–,–,–,–,–,–,–,–,–,–,–
COc1cccc(-c2cc(=O)c3cc(OC)ccc3[nH]2)c1,–,> 100,0.48 µM and 0.411 µM,–,0.111,–,> 100,> 100,0.358,0.0445,0.0741,0.0624,–,0.292,0.661,0.0479,0.112,> 100,–,–
O=C1Nc2ccccc2C12CCNC2Cc1ccccc1 (stereo not given),> 100,> 100,> 100 µM,> 100,> 100,> 100,> 100,> 100,–,–,–,–,–,–,–,–,–,–,–,–
CC1CCC2(CC1)NN=c1s/c(=C\c3ccc(O)cc3)c(=O)n1N2 (stereo not given),> 100,> 100,> 100 µM,> 100,–,> 100,–,–,–,–,–,–,–,–,–,–,–,–,–,–
CC(C)CC(NC(=O)c1cccc(O)c1O)C(=O)NCc1cc(CNC(=O)C(CC(C)C)NC(=O)c2cccc(O)c2O)cc(CNC(=O)C(CC(C)C)NC(=O)c2cccc(O)c2O)c1 (stereo not given),36.1,61.8,34.3 µM,25.6,> 100,38.6,> 100,39.5,–,–,–,–,–,–,–,–,–,–,–,–
CCCCCC[N+](C)(C)Cc1ccc(C[N+](C)(C)CCCCCC)cc1,–,26.6,–,–,38.9,10.5,24.8,97.8,–,–,–,–,–,–,–,–,–,–,–,–
CC(C)=CC(=O)C/C(=N\NC(N)=S)C(=O)Nc1ccc(Cl)cc1,> 100,> 100,> 100 µM,> 100,> 100,> 100,> 100,> 100,–,–,–,–,–,–,–,–,–,–,–,–
Clc1ccc(SC(/C=C/NNC2=NC(c3ccccc3)C(c3ccccc3)=NN2)c2ccccc2)cc1 (stereo not given),61.6,> 100,45.6 µM,65.7,> 100,89.6,> 100,39.8,–,–,–,–,–,–,–,–,–,–,–,–
